Test results as given in ChEMBL document CHEMBL1201862, “PubChem BioAssay data set” (2004).
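Cells were grown in 96-well plates and exposed to each compound for 48 hours at five concentrations; endpoints were interpolated linearly between bracketing concentrations, or set to the highest concentration if not reached. GI50: concentration for 50% inhibition of growth.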 Calls of active or inactive are those of the source. Cut-off read from the data, not from the text of the source: active = GI50 up to about 1.1 µM and inactive = higher.

How the values were obtained:
Experiment in all cases: growth of human tumour cells (NCI), 48 h
K562 = tested on: K562
OVCAR-4 = tested on: OVCAR-4
PC-3 = tested on: PC-3
CAKI-1 = tested on: CAKI-1
RPMI-8226 = tested on: RPMI-8226
SW-620 = tested on: SW-620
HCT-116 = tested on: HCT-116
HL-60 = tested on: HL-60
SK-MEL-28 = tested on: SK-MEL-28
NCI-H460 = tested on: NCI-H460
IGROV-1 = tested on: IGROV-1
LOX IMVI = tested on: LOX IMVI
SK-MEL-5 = tested on: SK-MEL-5
SN12C = tested on: SN12C
ACHN = tested on: ACHN
TK-10 = tested on: TK-10
MDA-MB-231 = tested on: MDA-MB-231
NCI-H23 = tested on: NCI-H23
NCI-H522 = tested on: NCI-H522
A498 = tested on: A498

Compound	GI50 (K562)	GI50 (OVCAR-4)	GI50 (PC-3)	GI50 (CAKI-1)	GI50 (RPMI-8226)	GI50 (SW-620)	GI50 (HCT-116)	GI50 (HL-60)	GI50 (SK-MEL-28)	GI50 (NCI-H460)	GI50 (IGROV-1)	GI50 (LOX IMVI)	GI50 (SK-MEL-5)	GI50 (SN12C)	GI50 (ACHN)	GI50 (TK-10)	GI50 (MDA-MB-231)	GI50 (NCI-H23)	GI50 (NCI-H522)	GI50 (A498)
O=c1oc2ccc([N+](=O)[O-])cc2c(Nc2ccc3c(c2)Sc2ccccc2O3)c1[N+](=O)[O-]	24.2 µM (inactive)	32.3 µM (inactive)	19.5 µM (inactive)	22.3 µM (inactive)	9.2 µM (inactive)	30.3 µM (inactive)	15.8 µM (inactive)	18.6 µM (inactive)	25.9 µM (inactive)	20.2 µM (inactive)	21.6 µM (inactive)	20 µM (inactive)	20.3 µM (inactive)	20 µM (inactive)	27 µM (inactive)	27.4 µM (inactive)	18.6 µM (inactive)	18.6 µM (inactive)	17.6 µM (inactive)	–
COc1cc2cc3c4c(cc(OC)c(OC)c4c2cc1OC)CCN3C(=O)N(C)C	> 100 µM (inactive)	89.5 µM (inactive)	–	34.8 µM (inactive)	82.6 µM (inactive)	> 100 µM (inactive)	> 100 µM (inactive)	> 100 µM (inactive)	27.9 µM (inactive)	87.7 µM (inactive)	> 100 µM (inactive)	> 100 µM (inactive)	> 100 µM (inactive)	> 100 µM (inactive)	75.5 µM (inactive)	> 10 µM (inactive)	–	> 10 µM (inactive)	29.9 µM (inactive)	97.3 µM (inactive)
O=C1C(O)=C(CCCc2ccc(Oc3ccccc3)cc2)C(=O)c2ccccc21	5.78 µM (inactive)	19.4 µM (inactive)	–	21.2 µM (inactive)	5.52 µM (inactive)	8.63 µM (inactive)	3.7 µM (inactive)	7.94 µM (inactive)	17.9 µM (inactive)	10.4 µM (inactive)	6.19 µM (inactive)	3.57 µM (inactive)	3.38 µM (inactive)	10.9 µM (inactive)	5.93 µM (inactive)	18.4 µM (inactive)	–	4.58 µM (inactive)	6.49 µM (inactive)	10.3 µM (inactive)
Cc1ccc(/C=N/Nc2cc(C)c3ccccc3n2)s1	7 µM (inactive)	20 µM (inactive)	14 µM (inactive)	11.4 µM (inactive)	3.91 µM (inactive)	21.7 µM (inactive)	3.85 µM (inactive)	33.2 µM (inactive)	20.3 µM (inactive)	–	10.2 µM (inactive)	10.3 µM (inactive)	8.3 µM (inactive)	13.1 µM (inactive)	20.1 µM (inactive)	30.8 µM (inactive)	0.44 µM (active)	17.5 µM (inactive)	4.06 µM (inactive)	–
CC1=NN(c2nc(N)nc(C/C(N)=N/O)n2)C(C)(C)C1	> 100 µM (inactive)	> 100 µM (inactive)	–	> 100 µM (inactive)	> 100 µM (inactive)	> 100 µM (inactive)	> 100 µM (inactive)	> 100 µM (inactive)	> 100 µM (inactive)	> 100 µM (inactive)	> 100 µM (inactive)	> 100 µM (inactive)	> 100 µM (inactive)	> 100 µM (inactive)	> 100 µM (inactive)	> 100 µM (inactive)	> 100 µM (inactive)	> 100 µM (inactive)	> 100 µM (inactive)	> 100 µM (inactive)
O=C1c2ccc3ccccc3c2CCC1N1CCCCC1 (stereo unspecified)	17.6 µM (inactive)	16.6 µM (inactive)	17.4 µM (inactive)	16 µM (inactive)	–	17.6 µM (inactive)	17.8 µM (inactive)	21.9 µM (inactive)	18.1 µM (inactive)	22 µM (inactive)	15.2 µM (inactive)	19.2 µM (inactive)	17 µM (inactive)	15.6 µM (inactive)	17.7 µM (inactive)	16.1 µM (inactive)	16.9 µM (inactive)	19.7 µM (inactive)	16.8 µM (inactive)	–
N#Cc1nc(/C=C/c2nc(C#N)c(N)o2)oc1N	> 10 µM (inactive)	> 10 µM (inactive)	> 10 µM (inactive)	> 10 µM (inactive)	> 10 µM (inactive)	> 10 µM (inactive)	> 10 µM (inactive)	> 10 µM (inactive)	> 10 µM (inactive)	> 10 µM (inactive)	> 10 µM (inactive)	> 10 µM (inactive)	> 10 µM (inactive)	> 10 µM (inactive)	> 10 µM (inactive)	> 10 µM (inactive)	> 10 µM (inactive)	> 10 µM (inactive)	> 10 µM (inactive)	–
O=C1O/C(=C(\Br)c2ccc([N+](=O)[O-])cc2)c2ccccc21	30.1 µM (inactive)	> 100 µM (inactive)	> 100 µM (inactive)	> 100 µM (inactive)	38.7 µM (inactive)	> 64.3 µM (inactive)	97.9 µM (inactive)	36.1 µM (inactive)	> 100 µM (inactive)	> 100 µM (inactive)	> 100 µM (inactive)	67.8 µM (inactive)	> 75.7 µM (inactive)	> 100 µM (inactive)	> 100 µM (inactive)	> 100 µM (inactive)	–	> 100 µM (inactive)	38.5 µM (inactive)	> 100 µM (inactive)
COc1cc(OC(=O)c2c(O)cc(O)c(O)c2C)cc(C)c1C(=O)Oc1cc(C)c(C(=O)O)c(O)c1	> 100 µM (inactive)	> 100 µM (inactive)	–	> 100 µM (inactive)	> 100 µM (inactive)	> 100 µM (inactive)	> 100 µM (inactive)	> 100 µM (inactive)	> 100 µM (inactive)	> 100 µM (inactive)	> 100 µM (inactive)	> 100 µM (inactive)	> 100 µM (inactive)	> 100 µM (inactive)	> 100 µM (inactive)	> 100 µM (inactive)	–	> 100 µM (inactive)	> 100 µM (inactive)	> 100 µM (inactive)
O=C(/C=C/c1ccccc1F)c1ccc(Cl)c(Cl)c1	20.5 µM (inactive)	44.4 µM (inactive)	–	38.8 µM (inactive)	27.7 µM (inactive)	29.3 µM (inactive)	16.3 µM (inactive)	18.9 µM (inactive)	> 53.1 µM (inactive)	> 71.1 µM (inactive)	34.3 µM (inactive)	15.4 µM (inactive)	33.5 µM (inactive)	35.6 µM (inactive)	> 88.1 µM (inactive)	> 100 µM (inactive)	–	14.2 µM (inactive)	23.2 µM (inactive)	> 39.1 µM (inactive)
COc1ccc(OC)c2c1C(=O)C1CC1(Br)C2=O (stereo unspecified)	> 100 µM (inactive)	> 100 µM (inactive)	–	> 100 µM (inactive)	> 100 µM (inactive)	> 100 µM (inactive)	> 100 µM (inactive)	> 100 µM (inactive)	> 100 µM (inactive)	> 100 µM (inactive)	> 100 µM (inactive)	> 100 µM (inactive)	> 100 µM (inactive)	> 100 µM (inactive)	> 100 µM (inactive)	> 100 µM (inactive)	–	> 100 µM (inactive)	> 100 µM (inactive)	> 100 µM (inactive)
O=c1n(CCCN2CCOCC2)nc2n1-c1ccc3ccccc3c1SC2	67.1 µM (inactive)	56.9 µM (inactive)	38.6 µM (inactive)	49 µM (inactive)	45.2 µM (inactive)	37.5 µM (inactive)	40.8 µM (inactive)	31.1 µM (inactive)	36.5 µM (inactive)	30.2 µM (inactive)	> 100 µM (inactive)	26.9 µM (inactive)	29.4 µM (inactive)	71.9 µM (inactive)	–	84.1 µM (inactive)	–	–	22.3 µM (inactive)	89.9 µM (inactive)
COc1c(C)c(C/C=C(\C)CC/C=C(\C)CC/C=C(\C)CC/C=C(\C)CCC=C(C)C)c(OC)c(OC)c1OC	24.4 µM (inactive)	19.9 µM (inactive)	52.8 µM (inactive)	81.3 µM (inactive)	–	97.7 µM (inactive)	58.3 µM (inactive)	–	–	8.81 µM (inactive)	26.9 µM (inactive)	17.1 µM (inactive)	16.7 µM (inactive)	22.9 µM (inactive)	16.4 µM (inactive)	24 µM (inactive)	28.3 µM (inactive)	17.6 µM (inactive)	16 µM (inactive)	–
CC1(C)S[C@@H]2[C@H](NC(=O)/C=C/c3ccccc3)C(=O)N2[C@H]1C(=O)O	–	> 100 µM (inactive)	> 100 µM (inactive)	> 100 µM (inactive)	> 100 µM (inactive)	> 100 µM (inactive)	> 100 µM (inactive)	> 100 µM (inactive)	69.5 µM (inactive)	> 100 µM (inactive)	> 100 µM (inactive)	> 100 µM (inactive)	> 100 µM (inactive)	> 100 µM (inactive)	> 100 µM (inactive)	> 100 µM (inactive)	> 100 µM (inactive)	> 100 µM (inactive)	> 100 µM (inactive)	–
C[C@]12CCCC(=O)C1(O)C[C@H](C(=O)O)CC2 (stereo partly specified)	> 100 µM (inactive)	> 100 µM (inactive)	–	> 100 µM (inactive)	> 100 µM (inactive)	> 100 µM (inactive)	> 100 µM (inactive)	> 100 µM (inactive)	> 100 µM (inactive)	> 100 µM (inactive)	> 100 µM (inactive)	> 100 µM (inactive)	> 100 µM (inactive)	> 100 µM (inactive)	> 100 µM (inactive)	> 100 µM (inactive)	–	> 100 µM (inactive)	> 100 µM (inactive)	> 100 µM (inactive)
